Target: T1, GST-tagged truncated human mutant G2019S LRRK2 (Homo sapiens, UniProt Q5S007, G2019S)
T1 construct: GST-tagged truncated human mutant G2019S LRRK2; purchased Life Technologies Corporation (Carlsbad, CA)
Assay: LRRK2 G2019S Km ATP LanthaScreen assay
Type: biochemical
Conditions: 134 μM ATP (Km ATP), LRRKtide substrate, mean of several tests, read-out: LRRK2 pIC50 (converted)
Summary of the method: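 IC50 values are means of repeat runs, fitted with a 4-parameter logistic to the 520/495 nm TR-FRET ratio from a Tb-labeled anti-phospho-LRRKtide antibody added with EDTA. Reactions ran 90 min at room temperature at Km ATP (134 μM) with fluorescein-LRRKtide, after 15-min compound preincubation with truncated GST-tagged G2019S LRRK2.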

T1 sequence (Q5S007 970-2527 G2019S limits assumed): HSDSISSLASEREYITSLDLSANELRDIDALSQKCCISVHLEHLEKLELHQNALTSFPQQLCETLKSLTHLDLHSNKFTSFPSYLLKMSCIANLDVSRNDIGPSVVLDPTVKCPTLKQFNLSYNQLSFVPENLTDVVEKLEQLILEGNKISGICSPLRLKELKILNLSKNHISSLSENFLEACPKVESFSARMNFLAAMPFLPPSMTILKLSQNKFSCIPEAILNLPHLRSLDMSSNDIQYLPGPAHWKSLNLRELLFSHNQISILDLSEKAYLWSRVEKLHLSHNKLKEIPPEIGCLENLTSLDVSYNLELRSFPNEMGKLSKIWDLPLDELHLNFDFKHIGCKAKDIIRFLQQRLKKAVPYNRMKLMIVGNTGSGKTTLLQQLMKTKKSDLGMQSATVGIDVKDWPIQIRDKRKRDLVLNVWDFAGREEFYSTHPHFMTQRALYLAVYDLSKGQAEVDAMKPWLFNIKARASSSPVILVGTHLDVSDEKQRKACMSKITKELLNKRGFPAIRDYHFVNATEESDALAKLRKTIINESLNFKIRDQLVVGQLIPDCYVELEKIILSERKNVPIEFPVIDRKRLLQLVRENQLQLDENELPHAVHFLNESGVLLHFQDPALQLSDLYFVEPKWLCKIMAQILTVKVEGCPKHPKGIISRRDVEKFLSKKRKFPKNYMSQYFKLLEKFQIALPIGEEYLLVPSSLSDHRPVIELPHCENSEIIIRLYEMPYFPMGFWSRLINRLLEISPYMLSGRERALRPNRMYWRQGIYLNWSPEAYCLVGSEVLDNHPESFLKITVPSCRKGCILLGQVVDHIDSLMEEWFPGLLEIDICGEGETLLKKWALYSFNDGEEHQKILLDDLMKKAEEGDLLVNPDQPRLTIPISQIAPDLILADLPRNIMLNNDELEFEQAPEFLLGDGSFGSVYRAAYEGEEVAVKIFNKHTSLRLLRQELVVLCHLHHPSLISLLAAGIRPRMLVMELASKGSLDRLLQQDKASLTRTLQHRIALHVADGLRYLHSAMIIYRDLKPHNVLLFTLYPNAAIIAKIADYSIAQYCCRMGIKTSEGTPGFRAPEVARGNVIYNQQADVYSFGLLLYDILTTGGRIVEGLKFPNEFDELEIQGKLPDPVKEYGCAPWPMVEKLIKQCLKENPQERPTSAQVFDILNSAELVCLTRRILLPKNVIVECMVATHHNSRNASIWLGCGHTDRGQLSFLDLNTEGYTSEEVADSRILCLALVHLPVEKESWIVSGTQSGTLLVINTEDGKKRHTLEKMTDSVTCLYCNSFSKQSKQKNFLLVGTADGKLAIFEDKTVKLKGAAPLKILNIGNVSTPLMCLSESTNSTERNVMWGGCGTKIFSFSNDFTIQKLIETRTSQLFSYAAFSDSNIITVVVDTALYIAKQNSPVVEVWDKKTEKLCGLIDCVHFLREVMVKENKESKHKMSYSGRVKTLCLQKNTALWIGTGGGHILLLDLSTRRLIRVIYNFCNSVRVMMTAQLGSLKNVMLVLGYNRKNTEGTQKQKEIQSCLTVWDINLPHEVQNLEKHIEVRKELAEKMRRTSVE

SMILES | IC50
CC1(N2CCN(c3cc4cc(NC(=O)C5CC56CCOC6)ncc4cc3Cl)CC2)COCC1O (single isomer, unassigned) [Ex-2.11, (1R,3R or 1S,3S)-N-(7-chloro-6-(4-((3R,4R or 3S,4S)-4-hydroxy-3-methyltetrahydrofuran-3-yl)piperazin-1-yl)isoquinolin-3-yl)-5-oxaspiro[2.4]heptane-1-carboxamide] | 1.45 nM
CC1(N2CCN(c3cc4cc(NC(=O)C5CC56CC6)ncc4cc3Cl)CC2)COCC1O (single isomer, unassigned) [Ex-2.12, (R or S)-N-(7-chloro-6-(4-((3R,4R or 3S,4S)-4-hydroxy-3-methyltetrahydrofuran-3-yl)piperazin-1-yl)isoquinolin-3-yl)spiro[2.2]pentane-1-carboxamide] | 0.513 nM
CC1(N2CCN(c3cc4cc(NC(=O)C5CC56CC6)ncc4cc3Cl)CC2)COCC1O (single isomer, unassigned) [Ex-2.13, (R or S)-N-(7-chloro-6-(4-((3R,4R or 3S,4S)-4-hydroxy-3-methyltetrahydrofuran-3-yl)piperazin-1-yl)isoquinolin-3-yl)spiro[2.2]pentane-1-carboxamide] | 33.9 nM
CC1(N2CCN(c3cc4cc(NC(=O)C5CC56CC6)ncc4cc3Cl)CC2)COCC1O (single isomer, unassigned) [Ex-2.14, (R or S)-N-(7-chloro-6-(4-((3R,4R or 3S,4S)-4-hydroxy-3-methyltetrahydrofuran-3-yl)piperazin-1-yl)isoquinolin-3-yl)spiro[2.2]pentane-1-carboxamide] | 0.468 nM
CC1(N2CCN(c3cc4cc(NC(=O)C5CC56CC6)ncc4cc3Cl)CC2)COCC1O (single isomer, unassigned) [Ex-2.15, (R or S)-N-(7-chloro-6-(4-((3R,4R or 3S,4S)-4-hydroxy-3-methyltetrahydrofuran-3-yl)piperazin-1-yl)isoquinolin-3-yl)spiro[2.2]pentane-1-carboxamide] | 30.2 nM
CC1(N2CCN(c3cc4cc(NC(=O)C5CC56CC6(F)F)ncc4cc3Cl)CC2)COCC1O (single isomer, unassigned) [Ex-2.16, (1R,3R or 1S,3S)-N-(7-chloro-6-(4-((3R,4R or 3S,4S)-4-hydroxy-3-methyltetrahydrofuran-3-yl)piperazin-1-yl)isoquinolin-3-yl)-4,4-difluorospiro[2.2]pentane-1-carboxamide] | 0.813 nM
CC1(N2CCN(c3cc4cc(NC(=O)C5CC6(CC6)C5)ncc4cc3Cl)CC2)COCC1O (single isomer, unassigned) [Ex-2.17, N-(7-chloro-6-(4-((3R,4R or 3S,4S)-4-hydroxy-3-methyltetrahydrofuran-3-yl)piperazin-1-yl)isoquinolin-3-yl)spiro[2.3]hexane-5-carboxamide] | 0.955 nM
CC12CC(C(=O)Nc3cc4cc(N5CCN(C6(C)COCC6O)CC5)c(Cl)cc4cn3)(CO1)C2 (single isomer, unassigned) [Ex-2.18, N-(7-chloro-6-(4-((3R,4R or 3S,4S)-4-hydroxy-3-methyltetrahydrofuran-3-yl)piperazin-1-yl)isoquinolin-3-yl)-1-methyl-2-oxabicyclo[2.1.1]hexane-4-carboxamide] | 15.5 nM
CC1(N2CCN(c3cc4cc(NC(=O)C56CC(C5)C6)ncc4cc3Cl)CC2)COCC1O (single isomer, unassigned) [Ex-2.19, N-(7-chloro-6-(4-((3R,4R or 3S,4S)-4-hydroxy-3-methyltetrahydrofuran-3-yl)piperazin-1-yl)isoquinolin-3-yl)bicyclo[1.1.1]pentane-1-carboxamide] | 2.88 nM
C[C@H]1CN(c2cc3cc(NC(=O)C4CC45CCOCC5)ncc3cc2Cl)CCN1C1(C)COCC1O (single isomer, unassigned) [Ex-2.20, (R or S)-N-(7-chloro-6-((S or R)-4-((3R,4R, or 3S,4S)-4-hydroxy-3-methyltetrahydrofuran-3-yl)-3-methylpiperazin-1-yl)isoquinolin-3-yl)-6-oxaspiro[2.5]octane-1-carboxamide] | 0.178 nM
C[C@H]1CN(c2cc3cc(NC(=O)C4CC45CCOCC5)ncc3cc2Cl)CCN1C1(C)COCC1O (single isomer, unassigned) [Ex-2.21, (R or S)-N-(7-chloro-6-((S or R)-4-((3R,4R, or 3S,4S)-4-hydroxy-3-methyltetrahydrofuran-3-yl)-3-methylpiperazin-1-yl)isoquinolin-3-yl)-6-oxaspiro[2.5]octane-1-carboxamide] | 0.589 nM
CCC1(N2CCN(c3cc4cc(NC(=O)C5CC56CCOCC6)ncc4cc3Cl)CC2)COCC1O (single isomer, unassigned) [Ex-2.22, (R or S)-N-(7-chloro-6-(4-((3R,4R or 3S,4S)-3-ethyl-4-hydroxytetrahydrofuran-3-yl)piperazin-1-yl)isoquinolin-3-yl)-6-oxaspiro[2.5]octane-1-carboxamide] | 0.372 nM
CC1(N2CCN(c3cc4cc(NC(=O)C5CC5c5ccccn5)ncc4cc3F)CC2)COCC1O (single isomer, unassigned) [Ex-2.23, (1R,2R or 1S,2S)-N-[7-fluoro-6-[4-[(3R,4R or 3S,4S)-4-hydroxy-3-methyl-tetrahydrofuran-3-yl]piperazin-1-yl]-3-isoquinolyl]-2-(2-pyridyl)cyclopropanecarboxamide] | 0.316 nM
CC1(N2CCN(c3cc4cc(NC(=O)C5CC56CC6(F)F)ncc4cc3Cl)CC2)COCC1O (single isomer, unassigned) [Ex-3.1, (1R,3R or 1R,3S, 1S,3R, 1S,3S)-N-(7-chloro-6-(4-((3R,4R or 3S,4S)-4-hydroxy-3-methyltetrahydrofuran-3-yl)piperazin-1-yl)isoquinolin-3-yl)-4,4-difluorospiro[2.2]pentane-1-carboxamide] | 0.977 nM
CC1(N2CCN(c3cc4cc(NC(=O)C5CC56CC6(F)F)ncc4cc3Cl)CC2)COCC1O (single isomer, unassigned) [Ex-3.2] | 1.07 nM
CC1COC(=O)N1c1ccc2cnc(NC(=O)C3CC3)cc2c1 (single isomer, unassigned) [Ex-4.1, (R or S)-N-(6-(4-methyl-2-oxooxazolidin-3-yl)isoquinolin-3-yl)cyclopropanecarboxamide] | 3.47 nM
O=C(Nc1cc2cc(N3C(=O)C4CCC3C4)ccc2cn1)C1CC1 (single isomer, unassigned) [Ex-5.1] | 9.55 nM
O=C(Nc1cc2cc(N3C(=O)C4CCC3C4)ccc2cn1)C1CC1 (single isomer, unassigned) [Ex-5.2] | 25.7 nM
COC1COCC1(C)N1CCN(c2cc3cc(NC(=O)C4CC45CCOCC5)ncc3cc2Cl)CC1 (single isomer, unassigned) [Ex-5.3] | 0.372 nM

SMILES | IC50
COC1COCC1(C)N1CCN(c2cc3cc(NC(=O)C4CC45CCOCC5)ncc3cc2Cl)CC1 (single isomer, unassigned) [Ex-5.4] | 28.8 nM
COC1COCC1(C)N1CCN(c2cc3cc(NC(=O)C4CC45CCOCC5)ncc3cc2Cl)CC1 (single isomer, unassigned) [Ex-5.5] | 2.63 nM
COC1COCC1(C)N1CCN(c2cc3cc(NC(=O)C4CC45CCOCC5)ncc3cc2Cl)CC1 (single isomer, unassigned) [Ex-5.6] | 316 nM
COC1COCC1N1CCN(c2cc3cc(NC(=O)C4CC45CCOCC5)ncc3cc2Cl)CC1 (single isomer, unassigned) [Ex-5.7] | 2.63 nM
COC1COCC1N1CCN(c2cc3cc(NC(=O)C4CC45CCOCC5)ncc3cc2Cl)CC1 (single isomer, unassigned) [Ex-5.8] | 191 nM
COC1COCC1N1CCN(c2cc3cc(NC(=O)C4CC45CCOCC5)ncc3cc2Cl)CC1 (single isomer, unassigned) [Ex-5.9] | 1510 nM
COC1COCC1N1CCN(c2cc3cc(NC(=O)C4CC45CCOCC5)ncc3cc2Cl)CC1 (single isomer, unassigned) [Ex-5.10] | 38 nM
CC1(N2CCN(c3cc4cc(NC(=O)C5CC56CCOCC6)ncc4cc3Cl)CC2)CCOC1 (single isomer, unassigned) [Ex-5.11] | 2.45 nM
CC1(N2CCN(c3cc4cc(NC(=O)C5CC56CCOCC6)ncc4cc3Cl)CC2)CCOC1 (single isomer, unassigned) [Ex-5.12] | 126 nM
CC1(N2CCN(c3cc4cc(NC(=O)C5CC56CCOCC6)ncc4cc3Cl)CC2)CCOC1 (single isomer, unassigned) [Ex-5.13] | 83.2 nM
CC1(N2CCN(c3cc4cc(NC(=O)C5CC56CCOCC6)ncc4cc3Cl)CC2)CCOC1 (single isomer, unassigned) [Ex-5.14] | 302 nM
CC1(C#N)CCN(c2cc3cc(NC(=O)C4CC4c4cncnc4)ncc3cc2Cl)CC1 (single isomer, unassigned) [Ex-5.15] | 6.17 nM
CC1(C#N)CCN(c2cc3cc(NC(=O)C4CC4c4cncnc4)ncc3cc2Cl)CC1 (single isomer, unassigned) [Ex-5.16] | 427 nM
N#CC1CCN(c2cc3cc(NC(=O)C4CC4c4cncnc4)ncc3cc2Cl)CC1 (single isomer, unassigned) [Ex-5.17] | 0.0813 nM
N#CC1CCN(c2cc3cc(NC(=O)C4CC4c4cncnc4)ncc3cc2Cl)CC1 (single isomer, unassigned) [Ex-5.18] | 67.6 nM
N#CC1(F)CCN(c2cc3cc(NC(=O)C4CC4c4cncnc4)ncc3cc2Cl)CC1 (single isomer, unassigned) [Ex-5.19] | 117 nM
N#CC1(F)CCN(c2cc3cc(NC(=O)C4CC4c4cncnc4)ncc3cc2Cl)CC1 (single isomer, unassigned) [Ex-5.20] | 9.12 nM
Cc1cc2cnc(NC(=O)C3CC34CCOCC4)cc2cc1N1CCN(C2(C)COCC2O)CC1 (single isomer, unassigned) [Ex-6.1] | 0.355 nM
